Assay results published in US20260250257A1, “ANTIBACTERIAL AND SYNERGISTIC ACTIVE COMPOUND AND USE THEREOF” (EAST CHINA UNIVERSITY OF SCIENCE AND TECHNOLOGY, priority 2023, published 2026).
In brackets after ≈: the same amount, converted by molar mass.

Tested on: ATCC19606 strain (Acinetobacter baumannii)
Assay: Checkerboard antibacterial synergistic activity test with polymyxin E (FIC)
Assay type: cell-based
Set-up: key: FIC≤0.5 synergy; 0.5–1 additive; 1–2 indifferent; ≥2 antagonism
Conditions: combined with polymyxin E
Outline: (§1)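 FIC values come from a microdilution checkerboard crossing polymyxin E against the test compound in MH medium, with uninoculated blanks included. Incubation lasts 16 h at 37° C. Scoring: synergy at FIC ≤0.5, additivity between 0.5 and 1, indifference between 1 and 2, antagonism at 2 or above.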

SMILES	Synergistic activity (FIC value) ATCC19606
CC(C)=CCOc1cc(-c2nc(N=C(N)N)oc2Cl)cc(OCC=C(C)C)c1O [Compound I-50]	0.13
CC(C)c1cc(-c2coc(N=C(N)N)n2)cc(C(C)C)c1O [Compound I-19]	0.12
Cc1sc(N=C(N)N)nc1-c1cccc(S(C)(=O)=O)c1-c1ccccn1 [Compound I-76]	0.75
NC(N)=Nc1nc(-c2cc(C(F)(F)F)cc(C(F)(F)F)c2)cs1 [Compound I-44]	0.14
CS(=O)(=O)c1ccc(Oc2cccc(-c3csc(N=C(N)N)n3)c2)cc1 [Compound I-106]	1.25
Fc1cc(-c2csc(N=C3NCCCN3)n2)c(F)cc1Oc1ccccc1 [Compound I-136]	1.25
CSc1cc2c(Cl)cccn2c1-c1c[nH]c(N=C(N)N)n1 [Compound I-129]	0.31
O=C(Nc1cccc(-c2coc(N=C3NCCCN3)n2)c1)Nc1ccc(Cl)cc1Cl [Compound I-200]	0.25
NC(N)=Nc1nc(-c2cc(I)cc(I)c2)c[se]1 [Compound I-34]	0.75
COc1ccc(Oc2cccc(-c3c[nH]c(N=C(N)N)n3)c2)c(C)c1 [Compound I-93]	0.03

Tested on: ATCC25922 strain (Escherichia coli)
Assay: as above
Assay type: cell-based
Set-up: key: FIC≤0.5 synergy; 0.5–1 additive; 1–2 indifferent; ≥2 antagonism
Conditions: combined with polymyxin E
Outline: as §1

SMILES	Synergistic activity (FIC value) ATCC25922
CC(C)=CCOc1cc(-c2nc(N=C(N)N)oc2Cl)cc(OCC=C(C)C)c1O [Compound I-50]	0.26
CC(C)c1cc(-c2coc(N=C(N)N)n2)cc(C(C)C)c1O [Compound I-19]	0.38
Cc1sc(N=C(N)N)nc1-c1cccc(S(C)(=O)=O)c1-c1ccccn1 [Compound I-76]	0.5
NC(N)=Nc1nc(-c2cc(C(F)(F)F)cc(C(F)(F)F)c2)cs1 [Compound I-44]	0.31
CS(=O)(=O)c1ccc(Oc2cccc(-c3csc(N=C(N)N)n3)c2)cc1 [Compound I-106]	0.53
Fc1cc(-c2csc(N=C3NCCCN3)n2)c(F)cc1Oc1ccccc1 [Compound I-136]	0.5
CSc1cc2c(Cl)cccn2c1-c1c[nH]c(N=C(N)N)n1 [Compound I-129]	0.14
O=C(Nc1cccc(-c2coc(N=C3NCCCN3)n2)c1)Nc1ccc(Cl)cc1Cl [Compound I-200]	1.25
NC(N)=Nc1nc(-c2cc(I)cc(I)c2)c[se]1 [Compound I-34]	1.25
COc1ccc(Oc2cccc(-c3c[nH]c(N=C(N)N)n3)c2)c(C)c1 [Compound I-93]	0.18

Tested on: ATCC13883 strain (Klebsiella pneumoniae)
Assay: as above
Assay type: cell-based
Set-up: key: FIC≤0.5 synergy; 0.5–1 additive; 1–2 indifferent; ≥2 antagonism
Conditions: combined with polymyxin E
Outline: as §1

SMILES	Synergistic activity (FIC value) ATCC13883
CC(C)=CCOc1cc(-c2nc(N=C(N)N)oc2Cl)cc(OCC=C(C)C)c1O [Compound I-50]	0.16
CC(C)c1cc(-c2coc(N=C(N)N)n2)cc(C(C)C)c1O [Compound I-19]	0.31
Cc1sc(N=C(N)N)nc1-c1cccc(S(C)(=O)=O)c1-c1ccccn1 [Compound I-76]	0.63
NC(N)=Nc1nc(-c2cc(C(F)(F)F)cc(C(F)(F)F)c2)cs1 [Compound I-44]	0.25
CS(=O)(=O)c1ccc(Oc2cccc(-c3csc(N=C(N)N)n3)c2)cc1 [Compound I-106]	1.25
Fc1cc(-c2csc(N=C3NCCCN3)n2)c(F)cc1Oc1ccccc1 [Compound I-136]	1.25
CSc1cc2c(Cl)cccn2c1-c1c[nH]c(N=C(N)N)n1 [Compound I-129]	0.09
O=C(Nc1cccc(-c2coc(N=C3NCCCN3)n2)c1)Nc1ccc(Cl)cc1Cl [Compound I-200]	0.53
NC(N)=Nc1nc(-c2cc(I)cc(I)c2)c[se]1 [Compound I-34]	1.25
COc1ccc(Oc2cccc(-c3c[nH]c(N=C(N)N)n3)c2)c(C)c1 [Compound I-93]	0.16

Tested on: ATCC9027 strain (Pseudomonas aeruginosa)
Assay: as above
Assay type: cell-based
Set-up: key: FIC≤0.5 synergy; 0.5–1 additive; 1–2 indifferent; ≥2 antagonism
Conditions: combined with polymyxin E
Outline: as §1

SMILES	Synergistic activity (FIC value) ATCC9027
CC(C)=CCOc1cc(-c2nc(N=C(N)N)oc2Cl)cc(OCC=C(C)C)c1O [Compound I-50]	0.31
CC(C)c1cc(-c2coc(N=C(N)N)n2)cc(C(C)C)c1O [Compound I-19]	0.31
Cc1sc(N=C(N)N)nc1-c1cccc(S(C)(=O)=O)c1-c1ccccn1 [Compound I-76]	0.56
NC(N)=Nc1nc(-c2cc(C(F)(F)F)cc(C(F)(F)F)c2)cs1 [Compound I-44]	0.52
CS(=O)(=O)c1ccc(Oc2cccc(-c3csc(N=C(N)N)n3)c2)cc1 [Compound I-106]	1.25
Fc1cc(-c2csc(N=C3NCCCN3)n2)c(F)cc1Oc1ccccc1 [Compound I-136]	1.25
CSc1cc2c(Cl)cccn2c1-c1c[nH]c(N=C(N)N)n1 [Compound I-129]	0.06
O=C(Nc1cccc(-c2coc(N=C3NCCCN3)n2)c1)Nc1ccc(Cl)cc1Cl [Compound I-200]	0.53
NC(N)=Nc1nc(-c2cc(I)cc(I)c2)c[se]1 [Compound I-34]	1.25
COc1ccc(Oc2cccc(-c3c[nH]c(N=C(N)N)n3)c2)c(C)c1 [Compound I-93]	0.28

Tested on: ATCC19606 strain (Acinetobacter baumannii)
Assay: Broth microdilution, antibacterial activity of the compound used alone
Assay type: cell-based
Conditions: not given
Source text: (§2) The broth microdilution method was used to test the antibacterial effects of the compounds of the present invention against various Gram-negative bacterial strains when used alone.

SMILES	Antibacterial activity of the compound of Formula I, ATCC19606
CC(C)=CCOc1cc(-c2nc(N=C(N)N)oc2Cl)cc(OCC=C(C)C)c1O [Compound I-50]	256 µg/mL
CC(C)c1cc(-c2coc(N=C(N)N)n2)cc(C(C)C)c1O [Compound I-19]	256 µg/mL
Cc1sc(N=C(N)N)nc1-c1cccc(S(C)(=O)=O)c1-c1ccccn1 [Compound I-76]	256 µg/mL
Fc1cc(-c2csc(N=C3NCCCN3)n2)c(F)cc1Oc1ccccc1 [Compound I-136]	256 µg/mL
CSc1cc2c(Cl)cccn2c1-c1c[nH]c(N=C(N)N)n1 [Compound I-129]	256 µg/mL
O=C(Nc1cccc(-c2coc(N=C3NCCCN3)n2)c1)Nc1ccc(Cl)cc1Cl [Compound I-200]	256 µg/mL
NC(N)=Nc1nc(-c2cc(I)cc(I)c2)c[se]1 [Compound I-34]	256 µg/mL
COc1ccc(Oc2cccc(-c3c[nH]c(N=C(N)N)n3)c2)c(C)c1 [Compound I-93]	256 µg/mL

Same assay, conditions: read-out: Antibacterial activity of the compound of Formula I, ATCC19606

MIC	SMILES
256 µg/mL (≈ 723 µM)	NC(N)=Nc1nc(-c2cc(C(F)(F)F)cc(C(F)(F)F)c2)cs1 [Compound I-44]
256 µg/mL (≈ 659 µM)	CS(=O)(=O)c1ccc(Oc2cccc(-c3csc(N=C(N)N)n3)c2)cc1 [Compound I-106]

Tested on: ATCC25922 strain (Escherichia coli)
Assay: as above
Assay type: cell-based
Conditions: not given
Source text: as §2

SMILES	Antibacterial activity of the compound of Formula I, ATCC25922
CC(C)=CCOc1cc(-c2nc(N=C(N)N)oc2Cl)cc(OCC=C(C)C)c1O [Compound I-50]	256 µg/mL
CC(C)c1cc(-c2coc(N=C(N)N)n2)cc(C(C)C)c1O [Compound I-19]	256 µg/mL
Cc1sc(N=C(N)N)nc1-c1cccc(S(C)(=O)=O)c1-c1ccccn1 [Compound I-76]	256 µg/mL
Fc1cc(-c2csc(N=C3NCCCN3)n2)c(F)cc1Oc1ccccc1 [Compound I-136]	256 µg/mL
CSc1cc2c(Cl)cccn2c1-c1c[nH]c(N=C(N)N)n1 [Compound I-129]	256 µg/mL
O=C(Nc1cccc(-c2coc(N=C3NCCCN3)n2)c1)Nc1ccc(Cl)cc1Cl [Compound I-200]	256 µg/mL
NC(N)=Nc1nc(-c2cc(I)cc(I)c2)c[se]1 [Compound I-34]	256 µg/mL
COc1ccc(Oc2cccc(-c3c[nH]c(N=C(N)N)n3)c2)c(C)c1 [Compound I-93]	256 µg/mL

Same assay, conditions: read-out: Antibacterial activity of the compound of Formula I, ATCC25922

MIC	SMILES
256 µg/mL (≈ 723 µM)	NC(N)=Nc1nc(-c2cc(C(F)(F)F)cc(C(F)(F)F)c2)cs1 [Compound I-44]
256 µg/mL (≈ 659 µM)	CS(=O)(=O)c1ccc(Oc2cccc(-c3csc(N=C(N)N)n3)c2)cc1 [Compound I-106]

Tested on: ATCC13883 strain (Klebsiella pneumoniae)
Assay: as above
Assay type: cell-based
Conditions: not given
Source text: as §2

SMILES	Antibacterial activity of the compound of Formula I, ATCC13883
CC(C)=CCOc1cc(-c2nc(N=C(N)N)oc2Cl)cc(OCC=C(C)C)c1O [Compound I-50]	256 µg/mL
CC(C)c1cc(-c2coc(N=C(N)N)n2)cc(C(C)C)c1O [Compound I-19]	256 µg/mL
Cc1sc(N=C(N)N)nc1-c1cccc(S(C)(=O)=O)c1-c1ccccn1 [Compound I-76]	256 µg/mL
Fc1cc(-c2csc(N=C3NCCCN3)n2)c(F)cc1Oc1ccccc1 [Compound I-136]	256 µg/mL
CSc1cc2c(Cl)cccn2c1-c1c[nH]c(N=C(N)N)n1 [Compound I-129]	256 µg/mL
O=C(Nc1cccc(-c2coc(N=C3NCCCN3)n2)c1)Nc1ccc(Cl)cc1Cl [Compound I-200]	256 µg/mL
NC(N)=Nc1nc(-c2cc(I)cc(I)c2)c[se]1 [Compound I-34]	256 µg/mL
COc1ccc(Oc2cccc(-c3c[nH]c(N=C(N)N)n3)c2)c(C)c1 [Compound I-93]	256 µg/mL

Same assay, conditions: read-out: Antibacterial activity of the compound of Formula I, ATCC13883

MIC	SMILES
256 µg/mL (≈ 723 µM)	NC(N)=Nc1nc(-c2cc(C(F)(F)F)cc(C(F)(F)F)c2)cs1 [Compound I-44]
256 µg/mL (≈ 659 µM)	CS(=O)(=O)c1ccc(Oc2cccc(-c3csc(N=C(N)N)n3)c2)cc1 [Compound I-106]

Tested on: ATCC9027 strain (Pseudomonas aeruginosa)
Assay: as above
Assay type: cell-based
Conditions: not given
Source text: as §2

SMILES	Antibacterial activity of the compound of Formula I, ATCC9027
CC(C)=CCOc1cc(-c2nc(N=C(N)N)oc2Cl)cc(OCC=C(C)C)c1O [Compound I-50]	256 µg/mL
CC(C)c1cc(-c2coc(N=C(N)N)n2)cc(C(C)C)c1O [Compound I-19]	256 µg/mL
Cc1sc(N=C(N)N)nc1-c1cccc(S(C)(=O)=O)c1-c1ccccn1 [Compound I-76]	256 µg/mL
Fc1cc(-c2csc(N=C3NCCCN3)n2)c(F)cc1Oc1ccccc1 [Compound I-136]	256 µg/mL
CSc1cc2c(Cl)cccn2c1-c1c[nH]c(N=C(N)N)n1 [Compound I-129]	256 µg/mL
O=C(Nc1cccc(-c2coc(N=C3NCCCN3)n2)c1)Nc1ccc(Cl)cc1Cl [Compound I-200]	256 µg/mL
NC(N)=Nc1nc(-c2cc(I)cc(I)c2)c[se]1 [Compound I-34]	256 µg/mL
COc1ccc(Oc2cccc(-c3c[nH]c(N=C(N)N)n3)c2)c(C)c1 [Compound I-93]	256 µg/mL

Same assay, conditions: read-out: Antibacterial activity of the compound of Formula I, ATCC9027

MIC	SMILES
256 µg/mL (≈ 723 µM)	NC(N)=Nc1nc(-c2cc(C(F)(F)F)cc(C(F)(F)F)c2)cs1 [Compound I-44]
256 µg/mL (≈ 659 µM)	CS(=O)(=O)c1ccc(Oc2cccc(-c3csc(N=C(N)N)n3)c2)cc1 [Compound I-106]
